Relative viability data for eight cell lines are collected here from the supplement of paper PMC10307832.

Holding throughout (test): relative viability (nuclei count vs DMSO), 5 days (fraction); higher = more cells survive
Compound in test [1]: C1COCCN1C2=NC(=NC3=C2OC4=C3C=CC=N4)C5=CC(=CC=C5)NC(=O)C6=CN=C(C=C6)N + CCNC(=O)c1noc(-c2cc(C(C)C)c(O)cc2O)c1-c1ccc(CN2CCOCC2)cc1 [Luminespib] (partner 0.01 µM)
In outline:
(§1)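 Lung cancer cell lines were seeded in 1536-well plates and dosed by pin tool the next day, with either a single drug or a fixed anchor-drug dose combined with five library-drug doses (not always all listed) spaced in √10 steps. Five days later, one step fixed the cells and stained their nuclei (final 0.05% Triton X-100, 1% formaldehyde, 1 ug/ml Hoechst), and nuclei were counted on 4× images. Relative viability is the nuclei count in treated wells divided by the count in vehicle wells, and each value is the median of duplicate plates.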

Compound in the test “SGI-1776 + Decitabine”: CN1CCC(CNc2ccc3ncc(-c4cccc(OC(F)(F)F)c4)n3n2)CC1 [SGI-1776] + Nc1ncn([C@H]2C[C@H](O)[C@@H](CO)O2)c(=O)n1 [Decitabine] (partner 2 µM)
The method, boiled down:
as §1

Compound in the test “SGI-1776 + Vorinostat”: CN1CCC(CNc2ccc3ncc(-c4cccc(OC(F)(F)F)c4)n3n2)CC1 [SGI-1776] + O=C(CCCCCCC(=O)Nc1ccccc1)NO [Vorinostat] (partner 1 µM)
The method, boiled down: as §1

Compound in the test “Entinostat + Bortezomib”: Nc1ccccc1NC(=O)c1ccc(CNC(=O)OCc2cccnc2)cc1 [Entinostat] + CC(C)C[C@H](NC(=O)[C@H](Cc1ccccc1)NC(=O)c1cnccn1)B(O)O [Bortezomib] (partner 0.002 µM)
The method, boiled down:
as §1

Consider NCI-H650, for which the relative viability worked out at 0.873 in test [1] (first compound 0.02 µM); 0.756 in test [1] (first compound 0.06325 µM); 0.788 in test [1] (first compound 0.2 µM); 0.783 in test [1] (first compound 0.6325 µM); 0.698 in test [1] (first compound 2 µM); 0.337 with SGI-1776 + Decitabine (first compound 0.08 µM). For the same cell line, the relative viability with SGI-1776 + Decitabine (first compound 0.8 µM) stood at 0.32; in the test with SGI-1776 + Decitabine (first compound 2.53 µM), 0.341; with SGI-1776 + Decitabine (first compound 8 µM), 0.313; in the test with SGI-1776 + Vorinostat (first compound 0.08 µM), 0.536; with SGI-1776 + Vorinostat (first compound 0.8 µM), 0.453; with SGI-1776 + Vorinostat (first compound 2.53 µM), 0.477. The relative viability worked out at 0.376 in the test with SGI-1776 + Vorinostat (first compound 8 µM); 1.02 in the test with Entinostat + Bortezomib (first compound 0.02 µM); 0.916 with Entinostat + Bortezomib (first compound 0.06325 µM); 0.773 with Entinostat + Bortezomib (first compound 0.2 µM); 0.426 with Entinostat + Bortezomib (first compound 0.6325 µM); 0.171 with Entinostat + Bortezomib (first compound 2 µM).

On to NCI-H661, for which the relative viability in test [1] (first compound 0.02 µM) came to 0.894; in test [1] (first compound 0.06325 µM), 0.961; in test [1] (first compound 0.2 µM), 0.962; in test [1] (first compound 0.6325 µM), 0.958; in test [1] (first compound 2 µM), 0.52; with SGI-1776 + Decitabine (first compound 0.08 µM) it was 0.572. The relative viability in the test with SGI-1776 + Decitabine (first compound 0.8 µM) is 0.606; in the test with SGI-1776 + Decitabine (first compound 2.53 µM) it was 0.501; in the test with SGI-1776 + Decitabine (first compound 8 µM), 0.471; in the test with SGI-1776 + Vorinostat (first compound 0.08 µM) it was 0.822; in the test with SGI-1776 + Vorinostat (first compound 0.8 µM) it was 0.805; with SGI-1776 + Vorinostat (first compound 2.53 µM), 0.871. The relative viability with SGI-1776 + Vorinostat (first compound 8 µM) was found to be 0.829; with Entinostat + Bortezomib (first compound 0.02 µM) it was 0.956; in the test with Entinostat + Bortezomib (first compound 0.06325 µM), 0.883; with Entinostat + Bortezomib (first compound 0.2 µM), 0.861; in the test with Entinostat + Bortezomib (first compound 0.6325 µM), 0.781; with Entinostat + Bortezomib (first compound 2 µM), 0.7.

For NCI-H727, the relative viability stood at 0.482 in test [1] (first compound 0.02 µM); 0.317 in test [1] (first compound 0.06325 µM); 0.323 in test [1] (first compound 0.2 µM); 0.335 in test [1] (first compound 0.6325 µM); 0.346 in test [1] (first compound 2 µM); 0.875 with SGI-1776 + Decitabine (first compound 0.08 µM). The relative viability in the test with SGI-1776 + Decitabine (first compound 0.8 µM) is 1.01; with SGI-1776 + Decitabine (first compound 2.53 µM), 1.01; in the test with SGI-1776 + Decitabine (first compound 8 µM), 0.613; with SGI-1776 + Vorinostat (first compound 0.08 µM) it was 1.26; with SGI-1776 + Vorinostat (first compound 0.8 µM), 1.11; with SGI-1776 + Vorinostat (first compound 2.53 µM), 1.39. For the same cell line, the relative viability in the test with SGI-1776 + Vorinostat (first compound 8 µM) came to 0.983; in the test with Entinostat + Bortezomib (first compound 0.02 µM) it was 0.714; with Entinostat + Bortezomib (first compound 0.06325 µM), 0.965; with Entinostat + Bortezomib (first compound 0.2 µM), 0.754; with Entinostat + Bortezomib (first compound 0.6325 µM), 0.574; in the test with Entinostat + Bortezomib (first compound 2 µM), 0.329.

Consider NCI-H838, for which the relative viability in test [1] (first compound 0.02 µM) came to 0.338; in test [1] (first compound 0.06325 µM) it was 0.279; in test [1] (first compound 0.2 µM), 0.264; in test [1] (first compound 0.6325 µM), 0.303; in test [1] (first compound 2 µM), 0.227; with SGI-1776 + Decitabine (first compound 0.08 µM) it was 0.46. The relative viability in the test with SGI-1776 + Decitabine (first compound 0.8 µM) stood at 0.45; with SGI-1776 + Decitabine (first compound 2.53 µM) it was 0.435; with SGI-1776 + Decitabine (first compound 8 µM) it was 0.437; in the test with SGI-1776 + Vorinostat (first compound 0.08 µM) it was 0.794; with SGI-1776 + Vorinostat (first compound 0.8 µM), 0.697; with SGI-1776 + Vorinostat (first compound 2.53 µM), 0.676. Also, the relative viability with SGI-1776 + Vorinostat (first compound 8 µM) came out at 0.522; in the test with Entinostat + Bortezomib (first compound 0.02 µM) it was 0.959; with Entinostat + Bortezomib (first compound 0.06325 µM) it was 1.21; with Entinostat + Bortezomib (first compound 0.2 µM), 0.947; with Entinostat + Bortezomib (first compound 0.6325 µM), 0.634; in the test with Entinostat + Bortezomib (first compound 2 µM), 0.385.

As for NCI-H1355, the relative viability in test [1] (first compound 0.02 µM) came out at 0.708; in test [1] (first compound 0.06325 µM), 0.741; in test [1] (first compound 0.2 µM), 0.7; in test [1] (first compound 0.6325 µM), 0.58; in test [1] (first compound 2 µM), 0.693; with SGI-1776 + Decitabine (first compound 0.08 µM) it was 0.342. Besides, the relative viability in the test with SGI-1776 + Decitabine (first compound 0.8 µM) was 0.313; with SGI-1776 + Decitabine (first compound 2.53 µM), 0.416; in the test with SGI-1776 + Decitabine (first compound 8 µM) it was 0.359; in the test with SGI-1776 + Vorinostat (first compound 0.08 µM), 0.692; with SGI-1776 + Vorinostat (first compound 0.8 µM), 0.709; with SGI-1776 + Vorinostat (first compound 2.53 µM), 0.651. Besides, the relative viability was determined as 0.551 with SGI-1776 + Vorinostat (first compound 8 µM); 1.19 with Entinostat + Bortezomib (first compound 0.02 µM); 1.16 in the test with Entinostat + Bortezomib (first compound 0.06325 µM); 0.951 in the test with Entinostat + Bortezomib (first compound 0.2 µM); 0.725 with Entinostat + Bortezomib (first compound 0.6325 µM); 0.603 with Entinostat + Bortezomib (first compound 2 µM).

On to NCI-H1437, for which the relative viability came out at 0.859 in test [1] (first compound 0.02 µM); 1.21 in test [1] (first compound 0.06325 µM); 1.04 in test [1] (first compound 0.2 µM); 1.08 in test [1] (first compound 0.6325 µM); 0.537 in test [1] (first compound 2 µM); 0.553 with SGI-1776 + Decitabine (first compound 0.08 µM). In addition, the relative viability in the test with SGI-1776 + Decitabine (first compound 0.8 µM) is 0.598; in the test with SGI-1776 + Decitabine (first compound 2.53 µM) it was 0.645; with SGI-1776 + Decitabine (first compound 8 µM), 0.495; with SGI-1776 + Vorinostat (first compound 0.08 µM) it was 0.84; with SGI-1776 + Vorinostat (first compound 0.8 µM), 0.857; in the test with SGI-1776 + Vorinostat (first compound 2.53 µM) it was 0.798. Moreover, the relative viability was found to be 0.702 with SGI-1776 + Vorinostat (first compound 8 µM); 0.438 in the test with Entinostat + Bortezomib (first compound 0.02 µM); 0.323 in the test with Entinostat + Bortezomib (first compound 0.06325 µM); 0.239 in the test with Entinostat + Bortezomib (first compound 0.2 µM); 0.168 in the test with Entinostat + Bortezomib (first compound 0.6325 µM); 0.126 in the test with Entinostat + Bortezomib (first compound 2 µM).

Take NCI-H1650: the relative viability was found to be 0.186 in test [1] (first compound 0.02 µM); 0.202 in test [1] (first compound 0.06325 µM); 0.198 in test [1] (first compound 0.2 µM); 0.233 in test [1] (first compound 0.6325 µM); 0.166 in test [1] (first compound 2 µM); 0.456 with SGI-1776 + Decitabine (first compound 0.08 µM). Besides, the relative viability with SGI-1776 + Decitabine (first compound 0.8 µM) was found to be 0.388; with SGI-1776 + Decitabine (first compound 2.53 µM), 0.473; with SGI-1776 + Decitabine (first compound 8 µM) it was 0.342; with SGI-1776 + Vorinostat (first compound 0.08 µM), 0.848; in the test with SGI-1776 + Vorinostat (first compound 0.8 µM), 0.621; with SGI-1776 + Vorinostat (first compound 2.53 µM), 0.521. In addition, the relative viability was determined as 0.423 with SGI-1776 + Vorinostat (first compound 8 µM); 0.194 with Entinostat + Bortezomib (first compound 0.02 µM); 0.226 with Entinostat + Bortezomib (first compound 0.06325 µM); 0.2 with Entinostat + Bortezomib (first compound 0.2 µM); 0.214 in the test with Entinostat + Bortezomib (first compound 0.6325 µM); 0.214 in the test with Entinostat + Bortezomib (first compound 2 µM).

With NCI-H1651, the relative viability in test [1] (first compound 0.02 µM) is 0.949; in test [1] (first compound 0.06325 µM), 0.992; in test [1] (first compound 0.2 µM) it was 0.999; in test [1] (first compound 0.6325 µM), 0.856; in test [1] (first compound 2 µM), 0.557; in the test with SGI-1776 + Decitabine (first compound 0.08 µM) it was 0.622. For the same cell line, the relative viability with SGI-1776 + Decitabine (first compound 0.8 µM) worked out at 0.726; with SGI-1776 + Decitabine (first compound 2.53 µM), 0.65; in the test with SGI-1776 + Decitabine (first compound 8 µM) it was 0.499; with SGI-1776 + Vorinostat (first compound 0.08 µM), 0.605; with SGI-1776 + Vorinostat (first compound 0.8 µM) it was 0.648; with SGI-1776 + Vorinostat (first compound 2.53 µM), 0.563. The relative viability with SGI-1776 + Vorinostat (first compound 8 µM) came to 0.416; with Entinostat + Bortezomib (first compound 0.02 µM) it was 0.958; with Entinostat + Bortezomib (first compound 0.06325 µM) it was 0.923; with Entinostat + Bortezomib (first compound 0.2 µM) it was 0.921; in the test with Entinostat + Bortezomib (first compound 0.6325 µM), 0.926; with Entinostat + Bortezomib (first compound 2 µM), 0.84.
